Patent US11807835B2, “Detergent compositions containing a stabilized enzyme by phosphonates” (ECOLAB USA INC., priority 2016, dated 2023)

Assays:
lipase = assay: Lipase activity retention in detergent use solution (4000 ppm, 5 GPG water; p-nitrophenyl valerate, TRIS buffer pH 8.0); format: biochemical; details: for Relative Lipase Enzyme Activity in a Use Solution: Table 6E, room temperature; for Relative Lipase Enzyme Activity in a Use Solution of the All Ash Detergent Composition: Table 6F, all ash formula, 120º F.; for Relative Lipase Enzyme Activity: base formula
Method: The enzyme […] collected up to 4 hours, after a use solution was generated from the detergent composition. During the tests, the samples at different time points were collected and immediately frozen in an acetone/dry ice bath and stored in −80° C. before the activity of the enzyme was evaluated. For the use of such an assay, t=0 min was the reference point for 100% enzyme activity.
(§1) Assays of enzyme activity in formulations (% retention) were conducted to simulate a presoak condition in a beaker using the chemistry, temperature, and pH conditions relevant to manual warewash or presoak applications. Enzyme activity is an indicator of the stability of the enzyme in the detergent, specifically in an aqueous use solution within a sump (which is under conditions of high pH, temperature and dilution).
Enzyme activity under presoak or manual warewash conditions was traced quantitatively using a standard protease assay. Samples were prepared under bench top conditions, whereby the use solution from a detergent composition or detergent was obtained and maintained at a presoak or manual warewash temperature in a stirring water bath. After the time course for assessing enzyme stability is initiated, aliquots were taken at various time points and flash-frozen. A time=0 sample was prepared for each series by dissolving the detergent formulation at room temperature, mixing thoroughly, and flash freezing. Samples were thawed and diluted as necessary in an assay buffer usually for use in the protease assay. A glycine buffer at pH 9.0 is used here. The assay monitored the direct reaction of the protease on a small, commercially available peptidyl substrate, with liberation of the product providing correlation to the active enzyme content. The product was detected using a plate reader with an appreciable dynamic range (upper absorbance limit of the instrument >3.5). Enzyme activity levels were assessed relative to a calibration curve with average values for replicate tests used to map protease stability under presoak or manual warewash use conditions. Enzyme retention at each time point was calculated as the % enzyme activity relative to the time=0 sample.
The analysis by lipase and amylase assay was conducted similarly, except with a different substrate and buffers. For lipase activity, the substrate is p-nitrophenyl valerate, and for amylase, the substrate is an ethylidene substrate (EPS). The buffer used in lipase assay is TRIS (Tris(hydroxymethyl)aminomethane) buffer at pH 8.0, and in amylase assay HEPES (4-(2-hydroxyethyl)-1-piperazineethanesulfonic acid) buffer at pH 8.0.

[1] = tested on: enzyme (protease, amylase, lipase); assay: Overall effects of phosphonates on enzyme activity (Table 3); format: biochemical; details: overall effect of the phosphonate on enzyme activity in the detergent use solution
Method: The enzyme activities in the detergents with different phosphonate levels were tested at 4000 ppm in 5 grains per gallon (GPG) water at 120° F. with various time points collected up to 4 hours, after a use solution was generated from the detergent composition. During the tests, the samples at different time points were collected and immediately frozen in an acetone/dry ice bath and stored in −80° C. before the activity of the enzyme was evaluated. For the use of such an assay, t=0 min was the reference point for 100% enzyme activity.
as §1
The relative enzyme activities in a use solution of the tested detergent compositions containing a different phosphonate at different concentrations over a period time are listed in Table 4A-Table 4E, Table 5A-Table 5E, and Table 6A-Table 6F.

[2] = phosphonate 0.3 wt-%, time 0 min
[3] = phosphonate 0.3 wt-%, time 5 min
[4] = phosphonate 0.3 wt-%, time 10 min
[5] = phosphonate 0.3 wt-%, time 20 min
[6] = phosphonate 0.3 wt-%, time 40 min
[7] = phosphonate 0.3 wt-%, time 60 min
[8] = phosphonate 0.3 wt-%, time 90 min
[9] = phosphonate 0.3 wt-%, time 120 min
[10] = phosphonate 0.3 wt-%, time 150 min
[11] = phosphonate 0.3 wt-%, time 180 min
[12] = phosphonate 0.3 wt-%, time 210 min
[13] = phosphonate 0.3 wt-%, time 240 min

SMILES: CC(O)(P(=O)(O)O)P(=O)(O)O [HEDP, 1-hydroxy ethylidene-1,1-diphosphonic acid]
- Relative Lipase Enzyme Activity in a Use Solution (lipase; [2]): 100.00%
- Relative Lipase Enzyme Activity in a Use Solution (lipase; [3]): 101.22%
- Relative Lipase Enzyme Activity in a Use Solution (lipase; [4]): 102.97%
- Relative Lipase Enzyme Activity in a Use Solution (lipase; [5]): 98.65%
- Relative Lipase Enzyme Activity in a Use Solution (lipase; [6]): 81.12%
- Relative Lipase Enzyme Activity in a Use Solution (lipase; [7]): 89.82%
- Relative Lipase Enzyme Activity in a Use Solution (lipase; [8]): 104.91%
- Relative Lipase Enzyme Activity in a Use Solution (lipase; [9]): 100.99%
- Relative Lipase Enzyme Activity in a Use Solution (lipase; [10]): 100.18%
- Relative Lipase Enzyme Activity in a Use Solution (lipase; [11]): 100.45%
- Relative Lipase Enzyme Activity in a Use Solution (lipase; [12]): 98.87%
- Relative Lipase Enzyme Activity in a Use Solution (lipase; [13]): 99.95%
- Relative Lipase Enzyme Activity in a Use Solution of the All Ash Detergent Composition (lipase; [2]): 100.00%
- Relative Lipase Enzyme Activity in a Use Solution of the All Ash Detergent Composition (lipase; [3]): 39.01%
- Relative Lipase Enzyme Activity in a Use Solution of the All Ash Detergent Composition (lipase; [4]): 21.35%
- Relative Lipase Enzyme Activity in a Use Solution of the All Ash Detergent Composition (lipase; [5]): 7.45%
- Relative Lipase Enzyme Activity in a Use Solution of the All Ash Detergent Composition (lipase; [6]): 0.88%
- Relative Lipase Enzyme Activity in a Use Solution of the All Ash Detergent Composition (lipase; [7]): −0.91%
- Relative Lipase Enzyme Activity in a Use Solution of the All Ash Detergent Composition (lipase; [8]): −1.68%
- Relative Lipase Enzyme Activity in a Use Solution of the All Ash Detergent Composition (lipase; [9]): −1.38%
- Relative Lipase Enzyme Activity in a Use Solution of the All Ash Detergent Composition (lipase; [10]): −1.94%
- Relative Lipase Enzyme Activity in a Use Solution of the All Ash Detergent Composition (lipase; [11]): −4.15%
- Relative Lipase Enzyme Activity in a Use Solution of the All Ash Detergent Composition (lipase; [12]): −4.41%
- Relative Lipase Enzyme Activity in a Use Solution of the All Ash Detergent Composition (lipase; [13]): −3.60%
- Relative Lipase Enzyme Activity (lipase; phosphonate 0.3 wt-%, use solution at 120° F., time 0 min): 100.00%
- Relative Lipase Enzyme Activity (lipase; phosphonate 0.3 wt-%, use solution at 120° F., time 5 min): 47.15%
- Relative Lipase Enzyme Activity (lipase; phosphonate 0.3 wt-%, use solution at 120° F., time 10 min): 44.35%
- Relative Lipase Enzyme Activity (lipase; phosphonate 0.3 wt-%, use solution at 120° F., time 20 min): 34.94%
- Relative Lipase Enzyme Activity (lipase; phosphonate 0.3 wt-%, use solution at 120° F., time 40 min): 23.40%
- Relative Lipase Enzyme Activity (lipase; phosphonate 0.3 wt-%, use solution at 120° F., time 60 min): 17.75%
- Relative Lipase Enzyme Activity (lipase; phosphonate 0.3 wt-%, use solution at 120° F., time 90 min): 11.06%
- Relative Lipase Enzyme Activity (lipase; phosphonate 0.3 wt-%, use solution at 120° F., time 120 min): 6.92%
- Relative Lipase Enzyme Activity (lipase; phosphonate 0.3 wt-%, use solution at 120° F., time 150 min): 5.38%
- Relative Lipase Enzyme Activity (lipase; phosphonate 0.3 wt-%, use solution at 120° F., time 180 min): 2.90%
- Relative Lipase Enzyme Activity (lipase; phosphonate 0.3 wt-%, use solution at 120° F., time 210 min): 2.62%
- Relative Lipase Enzyme Activity (lipase; phosphonate 0.3 wt-%, use solution at 120° F., time 240 min): 2.32%
- Relative Lipase Enzyme Activity (lipase; phosphonate 0.6 wt-%, use solution at 120º F., time 0 min): 100.00%
- Relative Lipase Enzyme Activity (lipase; phosphonate 0.6 wt-%, use solution at 120º F., time 5 min): 62.99%
- Relative Lipase Enzyme Activity (lipase; phosphonate 0.6 wt-%, use solution at 120º F., time 10 min): 59.92%
- Relative Lipase Enzyme Activity (lipase; phosphonate 0.6 wt-%, use solution at 120º F., time 20 min): 48.34%
- Relative Lipase Enzyme Activity (lipase; phosphonate 0.6 wt-%, use solution at 120º F., time 40 min): 33.30%
- Relative Lipase Enzyme Activity (lipase; phosphonate 0.6 wt-%, use solution at 120º F., time 60 min): 23.22%
- Relative Lipase Enzyme Activity (lipase; phosphonate 0.6 wt-%, use solution at 120º F., time 90 min): 17.91%
- Relative Lipase Enzyme Activity (lipase; phosphonate 0.6 wt-%, use solution at 120º F., time 120 min): 14.72%
- Relative Lipase Enzyme Activity (lipase; phosphonate 0.6 wt-%, use solution at 120º F., time 150 min): 12.63%
- Relative Lipase Enzyme Activity (lipase; phosphonate 0.6 wt-%, use solution at 120º F., time 180 min): 7.01%
- Relative Lipase Enzyme Activity (lipase; phosphonate 0.6 wt-%, use solution at 120º F., time 210 min): 8.08%
- Relative Lipase Enzyme Activity (lipase; phosphonate 0.6 wt-%, use solution at 120º F., time 240 min): 5.20%
- Relative Lipase Enzyme Activity (lipase; phosphonate at 0.1% elemental phosphorus, at 120º F. or at room temperature (as titled), time 0 min): 100.00%
- Relative Lipase Enzyme Activity (lipase; phosphonate at 0.1% elemental phosphorus, at 120º F. or at room temperature (as titled), time 5 min): 79.12%
- Relative Lipase Enzyme Activity (lipase; phosphonate at 0.1% elemental phosphorus, at 120º F. or at room temperature (as titled), time 10 min): 67.70%
- Relative Lipase Enzyme Activity (lipase; phosphonate at 0.1% elemental phosphorus, at 120º F. or at room temperature (as titled), time 20 min): 51.16%
- Relative Lipase Enzyme Activity (lipase; phosphonate at 0.1% elemental phosphorus, at 120º F. or at room temperature (as titled), time 40 min): 25.69%
- Relative Lipase Enzyme Activity (lipase; phosphonate at 0.1% elemental phosphorus, at 120º F. or at room temperature (as titled), time 60 min): 19.99%
- Relative Lipase Enzyme Activity (lipase; phosphonate at 0.1% elemental phosphorus, at 120º F. or at room temperature (as titled), time 90 min): 16.10%
- Relative Lipase Enzyme Activity (lipase; phosphonate at 0.1% elemental phosphorus, at 120º F. or at room temperature (as titled), time 120 min): 13.04%
- Relative Lipase Enzyme Activity (lipase; phosphonate at 0.1% elemental phosphorus, at 120º F. or at room temperature (as titled), time 150 min): 11.14%
- Relative Lipase Enzyme Activity (lipase; phosphonate at 0.1% elemental phosphorus, at 120º F. or at room temperature (as titled), time 180 min): 9.12%
- Relative Lipase Enzyme Activity (lipase; phosphonate at 0.1% elemental phosphorus, at 120º F. or at room temperature (as titled), time 210 min): 7.99%
- Relative Lipase Enzyme Activity (lipase; phosphonate at 0.1% elemental phosphorus, at 120º F. or at room temperature (as titled), time 240 min): 7.70%
- Stability (effects on enzyme activity) [1]: No
